Structures can show the parent of a compound that is named as a salt.
What follows are compounds tested against T1, human high molecular weight urokinase (Homo sapiens, UniProt P00749) (assay: Urokinase Direct Assay). Details: read-out: uPA Direct: percentage of residual urokinase activity relative to inhibitor-free controls; heading: uPA Direct: percentage of residual urokinase activity relative to inhibitor-free controls; inhibitor concentration of 1 mM.
T1 construct: human high molecular weight urokinase; purchased American Diagnostica, Greenwich, Conn
Format: biochemical
Method: (i) A direct chromogenic assay in which urokinase cleaves a synthetic tripeptide p-nitroanilide (pNA) urokinase substrate.
Incubations were carried out at 37° C. for approximately 2 hours or until adequate yellow color developed. Color was quantitated by measuring absorbance at 405 nm (A405) using a Titertek Multiskan MCC/340 MK II microtiter plate spectrophotometer.

Compared with N=C(N)c1cc2cc(-c3cccnc3)ccc2s1 [Compound 125, 5-(Pyrid-3-yl)benzo[b]thiophene-2-carboxamidine hydrochloride], N=C(N)c1cc2cc(-c3cccs3)ccc2s1 [Compound 127, 5-(Thien-2-yl)benzo[b]thiophene-2-carboxamidine hydrochloride] is lower in residual urokinase activity at 1000 µM: 3.6% for the first, 1.1% for the second.

Going from N=C(N)c1cc2c(SCc3ccccc3)cccc2s1 [Compound 60, 4-(Benzylthio)benzo[b]thiophene-2-carboxamidine hydrochloride] to N=C(N)c1cc2c(CCc3ccccc3)cccc2s1 [Compound 15, 4-(2-Phenylethyl)benzo[b]thiophene-2-carboxamidine hydrochloride], the residual urokinase activity at 1000 µM falls from 1.3% to 0.35%.

Going from COc1ccc(F)c2cc(C(=N)N)sc12 [Compound 310, 4-Fluoro-7-methoxybenzo[b]thiophene-2-carboxamidine hydrochloride] to COc1cccc2sc(C(=N)N)cc12 [Compound 57, 4-Methoxybenzo[b]thiophene-2-carboxamidine hydrochloride], the residual urokinase activity at 1000 µM falls from > 90% to 12%.

Compared with N=C(N)c1cc2c(Cl)c(I)ccc2s1 [Compound 203, 4-Chloro-5-iodobenzo[b]thiophene-2-carboxamidine hydrochloride], Cc1ccc2sc(C(=N)N)cc2c1Br [Compound 202, 4-Bromo-5-methylbenzo[b]thiophene-2-carboxamidine hydrochloride] is lower in residual urokinase activity at 1000 µM: 3.5% for the first, 3% for the second.

Compared with N=C(N)c1cc2c(/C=C/CCCO)cccc2s1 [Compound 32, 4-(E-5-Hydroxypent-1-enyl)benzo[b]thiophene-2-carboxamidine hydrochloride], CCC=Cc1cccc2sc(C(=N)N)cc12 [Compound 20, 4-(E/Z-But-1-enyl)benzo[b]thiophene-2-carboxamidine hydrochloride] is higher in residual urokinase activity at 1000 µM: 0.67% for the first, 0.8% for the second.

Compared with N=C(N)c1sc2ccccc2c1O [Compound 305, 3-Hydroxybenzo[b]thiophene-2-carboxamidine hydrochloride], N=C(N)c1sc2ccccc2c1N [Compound 306, 3-Aminobenzo[b]thiophene-2-carboxamidine hydrochloride] is lower in residual urokinase activity at 1000 µM: > 90% for the first, 41% for the second.

First: COc1ccc(-c2cccc3sc(C(=N)N)cc23)cc1 [Compound 45, 4-(4-Methoxyphenyl)benzo[b]thiophene-2-carboxamidine hydrochloride]
Second: N=C(N)c1cc2c(ccc3ccccc32)s1 [Compound 205, Naphtho[2,1-b]thiophene-2-carboxamidine hydrochloride]
The residual urokinase activity at 1000 µM of the first is higher: 6% for the first, 0.27% for the second.

First: N=C(N)c1cc2cccc(I)c2s1 [Compound 302, 7-Iodobenzo[b]thiophene-2-carboxamidine hydrochloride]
Second: N=C(N)c1cc2ccc(I)cc2s1 [Compound 301, 6-Iodobenzo[b]thiophene-2-carboxamidine hydrochloride]
The residual urokinase activity at 1000 µM of the first is lower: 10.8% for the first, 13.7% for the second.

Compared with N=C(N)c1cc2cc(CO)ccc2s1 [Compound 131, 5-(Hydroxymethyl)benzo[b]thiophene-2-carboxamidine hydrochloride], N=C(N)c1cc2cc(CCO)ccc2s1 [Compound 113, 5-(2-Hydroxyethyl)benzo[b]thiophene-2-carboxamidine hydrochloride] is lower in residual urokinase activity at 1000 µM: 6.3% for the first, 2.9% for the second.

Compared with N=C(N)c1cc2cc(F)ccc2s1 [Compound 101, 5-Fluorobenzo[b]thiophene-2-carboxamidine hydrochloride], Cc1ccc2sc(C(=N)N)cc2c1 [Compound 105, 5-Methylbenzo[b]thiophene-2-carboxamidine hydrochloride] is lower in residual urokinase activity at 1000 µM: 12.7% for the first, 3.4% for the second.

First: CCCCCCCC/C=C/c1cccc2sc(C(=N)N)cc12 [Compound 31, 4-(E-Dec-1-enyl)benzo[b]thiophene-2-carboxamidine hydrochloride]
Second: N=C(N)c1cc2c(C=CC3CC3)cccc2s1 [Compound 34, 4-(E/Z-2-Cyclopropylethenyl)benzo[b]thiophene-2-carboxamidine. hydrochloride]
The residual urokinase activity at 1000 µM of the first is higher: 5.2% for the first, 0.46% for the second.

First: N=C(N)c1cc2cc3ccccc3cc2s1 [Compound 313, Naphtho[2,3-b]thiophene-2-carboxamidine hydrochloride]
Second: Cc1ccc2cc(C(=N)N)sc2c1 [Compound 303, 6-Methylbenzo[b]thiophene-2-carboxamidine hydrochloride]
The residual urokinase activity at 1000 µM of the first is lower: 11% for the first, 12% for the second.

N=C(N)c1cc2c(C=C(Br)Br)cccc2s1 [Compound 38, 4-(2,2-Dibromoethenyl)benzo[b]thiophene-2-carboxamidine hydrochloride] and N=C(N)c1cc2c(C=O)cccc2s1 [Compound 55, 4-Formylbenzo[b]thiophene-2-carboxamidine hydrochloride] are the same in residual urokinase activity at 1000 µM: 4.8% for the first, 4.8% for the second.

First: CC(c1ccccc1)c1cccc2sc(C(=N)N)cc12 (stereo not drawn) [Compound 16, 4-(1-Phenylethyl)benzo[b]thiophene-2-carboxamidine hydrochloride]
Second: N=C(N)c1cc2c(C#Cc3ccccc3)cccc2s1 [Compound 76, 4-(Phenylethynyl)benzo[b]thiophene-2-carboxamidine hydrochloride]
The residual urokinase activity at 1000 µM of the first is higher: 1.4% for the first, 1.1% for the second.

First: N=C(N)c1cc2cc(C=O)ccc2s1 [Compound 130, 5-Formylbenzo[b]thiophene-2-carboxamidine hydrochloride]
Second: CCC=Cc1ccc2sc(C(=N)N)cc2c1 [Compound 117, 5-(E/Z-But-1-enyl)benzo[b]thiophene-2-carboxamidine hydrochloride]
The residual urokinase activity at 1000 µM of the first is higher: 6.8% for the first, 1.1% for the second.

First: N=C(N)c1cc2cc(CCC3CC3)ccc2s1 [Compound 112, 5-(2-Cyclopropylethyl)benzo[b]thiophene-2-carboxamidine hydrochloride]
Second: CCCc1ccc2sc(C(=N)N)cc2c1 [Compound 107, 5-Propylbenzo[b]thiophene-2-carboxamidine hydrochloride]
The residual urokinase activity at 1000 µM of the first is higher: 3.3% for the first, 2.6% for the second.

Going from N=C(N)c1cc2c(-c3cccc4sc(C(=N)N)cc34)cccc2s1 [Compound 52, Bis-(2-carboxamidinobenzo[b]thien-4-yl) bis-hydrochloride] to N=C(N)c1cc2c(F)cccc2s1 [Compound 2, 4-Fluorobenzo[b]thiophene-2-carboxamidine hydrochloride], the residual urokinase activity at 1000 µM rises from 2.7% to 7.2%.

Going from N=C(N)c1cc2c(C(F)(F)F)cccc2s1 [Compound 54, 4-(Trifluoromethyl)benzo[b]thiophene-2-carboxamidine hydrochloride] to N=C(N)c1cc2c(Br)cccc2s1 [Compound 4, 4-Bromobenzo[b]thiophene-2-carboxamidine hydrochloride], the residual urokinase activity at 1000 µM falls from 2.4% to 0.8%.

Going from N=C(N)c1cc2c(F)cc(Br)cc2s1 [Compound 308, 4-Fluoro-6-bromobenzo[b]thiophene-2-carboxamidine hydrochloride] to N=C(N)c1cc2c(Cl)cccc2s1 [Compound 3, 4-Chlorobenzo[b]thiophene-2-carboxamidine hydrochloride], the residual urokinase activity at 1000 µM falls from 14.5% to 3%.

Compared with N=C(N)c1cc2cc(C(F)(F)F)ccc2s1 [Compound 129, 5-(Trifluoromethyl)benzo[b]thiophene-2-carboxamidine hydrochloride], C#Cc1ccc2sc(C(=N)N)cc2c1 [Compound 123, 5-(Ethynyl)benzo[b]thiophene-2-carboxamidine hydrochloride] is lower in residual urokinase activity at 1000 µM: 8.2% for the first, 2.5% for the second.

Going from N=C(N)c1cccc2sccc12 [Compound 317, Benzo[b]thiophene-4-carboxamidine hydrochloride] to N=C(N)c1csc2ccccc12 [Compound 316, Benzo[b]thiophene-3-carboxamidine hydrochloride], the residual urokinase activity at 1000 µM falls from 90% to 80%.

Compared with CC(C)CCc1ccc2sc(C(=N)N)cc2c1 [Compound 110, 5-(3-Methylbutyl)benzo[b]thiophene-2-carboxamidine hydrochloride], CCC(C)Cc1ccc2sc(C(=N)N)cc2c1 (racemic) [Compound 109, 5-([R/S]-2-Methylbutyl)benzo[b]thiophene-2-carboxamidine hydrochloride] is higher in residual urokinase activity at 1000 µM: 4.2% for the first, 6.6% for the second.

Compared with N=C(N)c1cc2cscc2s1 [Compound 323, Thieno[3,4-b]thiophene-2-carboxamidine hydrochloride], N=C(N)c1cc2sccc2s1 [Compound 322, Thieno[3,2-b]thiophene-2-carboxamidine hydrochloride] is lower in residual urokinase activity at 1000 µM: 5.3% for the first, 2.7% for the second.

First: N=C(N)NC(=O)c1cc2ccccc2s1 [Compound 320, N-Amidino benzo[b]thiophene-2-carboxamide hydrochloride]
Second: Cc1c(C(=N)N)sc2ccccc12 [Compound 304, 3-Methylbenzo[b]thiophene-2-carboxamidine hydrochloride]
The residual urokinase activity at 1000 µM of the first is higher: 84% for the first, 75% for the second.

Compared with CC(C)c1cccc2sc(C(=N)N)cc12 [Compound 8, 4-(1-Methylethyl)benzo[b]thiophene-2-carboxamidine hydrochloride], CCC(C)Cc1cccc2sc(C(=N)N)cc12 (racemic) [Compound 11, 4-([R/S]-2-Methylbutyl)benzo[b]thiophene-2-carboxamidine hydrochloride] is higher in residual urokinase activity at 1000 µM: 0.9% for the first, 2.3% for the second.

In the case of N=C(N)c1cc2c(N3CCOCC3)cccc2s1 [Compound 62, 4-(1-Morpholino)benzo[b]thiophene-2-carboxamidine hydrochloride], the residual urokinase activity at 1000 µM is reported as 3.6%.
